Patent US6673938B1, “Substituted pyridine herbicides” (Syngenta Participations AG, priority 1998, dated 2004)

Experiments:
[1] = test system: Monocotyledonous and dicotyledonous test plants; assay: Post-emergence herbicidal action; format: in vivo; details: evaluated after approximately 18 days; for Post-emergence action, Ipomoea / Post-emergence action, Lolium / Post-emergence action, Setaria / Post-emergence action, Sinapis / Post-emergence action, Solanum / Post-emergence action, Stellaria: 2000 g/ha, sprayed in 4- to 6-leaf stage, nine-step scale
Method in brief: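 Greenhouse plants sprayed at the 4- to 6-leaf stage with test substance as wettable-powder suspension or emulsion-concentrate emulsion, 2 kg or 250 g a.i./ha in 500 l water/ha. Scored after about 18 days on a nine-step scale (1=complete damage, 9=no effect).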

[2] = test system: Monocotyledonous and dicotyledonous test plants; assay: Herbicidal action before emergence of the plants (pre-emergence action); format: in vivo; details: evaluated after 3 weeks, nine-step scale; for pre-emergence action, Cyperus / pre-emergence action, Ipomoea / pre-emergence action, Setaria / pre-emergence action, Sinapis / pre-emergence action, Solanum / pre-emergence action, Stellaria: 2000 g/ha
Protocol: Monocotyledonous and dicotyledonous test plants are sown in standard soil in plastic pots. Immediately after sowing, the test substances as aqueous suspensions (prepared with a 25% wettable powder (Example F3, b) in accordance with WO 97/34485) or as emulsions (prepared with a 25% emulsion concentrate (Example F1, c)) are sprayed on at a rate of 2 kg of a.i./ha or 250 g of a.i./ha (500 l of water/ha). The test plants are then grown in the greenhouse under optimal conditions. After a test period of 3 weeks, the experiment is evaluated with reference to a nine-step scale (1=complete damage, 9=no effect). Score figures of 1 to 4 (in particular 1 to 3) mean a good to very good herbicidal action.

Row | Compound | Post-emergence action, Ipomoea [1] | Post-emergence action, Lolium [1] | Post-emergence action, Setaria [1] | Post-emergence action, Sinapis [1] | Post-emergence action, Solanum [1] | Post-emergence action, Stellaria [1] | pre-emergence action, Cyperus [2] | pre-emergence action, Ipomoea [2] | pre-emergence action, Setaria [2] | pre-emergence action, Sinapis [2] | pre-emergence action, Solanum [2] | pre-emergence action, Stellaria [2] | also measured
1 | CCC1(C)CC(C)(C)C(=O)C(C(=O)c2ccc(C(F)(F)F)nc2C)=C1O (stereo not shown) [Compound A2-B91] | 1 | 2 | 2 | 1 | 2 | 2 | 1 | 2 | 1 | 2 | 1 | 2 | 
2 | Cc1nc(C(F)(F)F)ccc1C(=O)C1=C(O)C(C)(C(C)C)CC(C)(C)C1=O (stereo not shown) [Compound A2-B93] | 1 | 2 | 2 | 1 | 2 | 2 | 2 | 4 | 2 | 2 | 1 | 2 | 
3 | CSC1(C)CC(C)(C)C(=O)C(C(=O)c2ccc(C(F)(F)F)nc2C)=C1O (stereo not shown) [Compound A2-B95] | 1 | 2 | 2 | 1 | 2 | 2 | 2 | 4 | 2 | 2 | 1 | 2 | 
4 | Cc1nc(C(F)(F)F)ccc1C(=O)C1=C(O)CC(C)CC1=O (stereo not shown) [Compound A2-B133] | 1 | 2 | 2 | 1 | 2 | 2 | 1 | 2 | 2 | 2 | 1 | 2 | 
5 | Cc1nc(C(F)(F)F)ccc1C(=O)C1=C(O)C(C)C(C)CC1=O (stereo not shown) [Compound A2-B134] | 2 | 2 | 1 | 1 | 1 | 2 | 1 | 2 | 1 | 2 | 1 | 1 | 
6 | CCOC(=O)C1C(O)=C(C(=O)c2ccc(C(F)(F)F)nc2C)C(=O)CC1C (stereo not shown) [Compound A2-B145] |  |  |  |  |  |  |  |  |  |  |  |  | Post-emergence action: Abutilon (score, nine-step scale) ([1]; Abutilon, 250 g/ha, sprayed at 4- to 6-leaf stage): 3; Post-emergence action: Chenop. (score, nine-step scale) ([1]; Chenop., 250 g/ha, sprayed at 4- to 6-leaf stage): 1; Post-emergence action: Digitaria (score, nine-step scale) ([1]; Digitaria, 250 g/ha, sprayed at 4- to 6-leaf stage): 2; Post-emergence action: Echino. (score, nine-step scale) ([1]; Echino., 250 g/ha, sprayed at 4- to 6-leaf stage): 2; Post-emergence action: Ipopur. (score, nine-step scale) ([1]; Ipopur., 250 g/ha, sprayed at 4- to 6-leaf stage): 3; Post-emergence action: Panicum (score, nine-step scale) ([1]; Panicum, 250 g/ha, sprayed at 4- to 6-leaf stage): 2; Post-emergence action: Xanth. (score, nine-step scale) ([1]; Xanth., 250 g/ha, sprayed at 4- to 6-leaf stage): 3; Pre-emergence action, Abutilon ([2]; Abutilon, 250 g/ha): 2; Pre-emergence action, Amaranthus ([2]; Amaranthus, 250 g/ha): 3; Pre-emergence action, Chenop. ([2]; Chenop., 250 g/ha): 1; Pre-emergence action, Digitaria ([2]; Digitaria, 250 g/ha): 2; Pre-emergence action, Echino. ([2]; Echino., 250 g/ha): 4; Pre-emergence action, Panicum ([2]; Panicum, 250 g/ha): 2
7 | Cc1nc(C(F)(F)F)ccc1C(=O)C1=C(O)C(C)(C)C(C)CC1=O (stereo not shown) [Compound A2-B156] | 1 | 2 | 2 | 1 | 2 | 2 | 1 | 2 | 1 | 2 | 1 | 2 | 
8 | Cc1nc(C(F)(F)F)ccc1C(=O)C1=C(O)C(C)(C)OC(C)(C)C1=O [Compound A2-B618] | 2 | 2 | 2 | 1 | 2 | 2 | 1 | 1 | 1 | 2 | 1 | 1 | 
9 | Cc1nc(C(F)(F)F)ccc1C(=O)C1=C(O)CC(C(C)C)CC1=O (stereo not shown) [Compound A2-B1061] | 2 | 2 | 2 | 1 | 2 | 2 | 3 | 3 | 2 | 2 | 1 | 2 | 
10 | Cc1nc(C(F)(F)F)ccc1C(=O)C1=C(O)CC(C)(C)CC1=O [Compound A2-B1063] | 2 | 2 | 4 | 1 | 2 | 2 | 1 | 2 | 1 | 2 | 1 | 2 | 
11 | COC1CCC(=O)C(C(=O)c2ccc(C(F)(F)F)nc2C)=C1O (stereo not shown) [Compound A2-B1068] | 1 | 2 | 4 | 1 | 1 | 2 | 2 | 2 | 2 | 2 | 1 | 2 | 
